Measured values as given in ChEMBL document CHEMBL3232845 (Bioorg Med Chem Lett, 2014).

Tests used:
[1] = biological target: Serine/threonine-protein kinase B-raf (Homo sapiens, UniProt P15056, V600E); experiment: Inhibition of B-Raf V600E mutant in human Malme-3M cells assessed as basal ERK phosphorylation; format: cell-based
[2] = biological target: RAC-gamma serine/threonine-protein kinase (Homo sapiens) (UniProt Q9Y243); experiment: Inhibition of human AKT3 assessed as enzyme activity at 1 uM relative to control; set-up: scale not given: the % may be the effect or the level left
[3] = biological target: Cyclin-dependent kinase 2/cyclin E1 (Homo sapiens) (UniProt P24864+P24941); experiment: Inhibition of human CDK2/cyclinE assessed as enzyme activity at 1 uM relative to control; format: protein-complex assay; set-up: scale not given: the % may be the effect or the level left
[4] = biological target: CDK3/Cyclin E (Homo sapiens) (UniProt P24864+Q00526); experiment: Inhibition of human CDK3/cyclinE assessed as enzyme activity at 1 uM relative to control; format: protein-complex assay; set-up: scale not given: the % may be the effect or the level left
[5] = biological target: CDK6/cyclin D3 (Homo sapiens) (UniProt P30281+Q00534); experiment: Inhibition of human CDK6/cyclinD3 assessed as enzyme activity at 1 uM relative to control; format: protein-complex assay; set-up: scale not given: the % may be the effect or the level left
[6] = biological target: CDK7/Cyclin H/MNAT1 (Homo sapiens) (UniProt P51946+P50613+P51948); experiment: Inhibition of human CDK7/cyclinH/MAT1 assessed as enzyme activity at 1 uM relative to control; format: protein-complex assay; set-up: scale not given: the % may be the effect or the level left
[7] = system: Saccharomyces cerevisiae; experiment: Inhibition of yeast CK1 assessed as enzyme activity at 1 uM relative to control; set-up: scale not given: the % may be the effect or the level left
[8] = biological target: Casein kinase II subunit alpha' (Homo sapiens) (UniProt P19784); experiment: Inhibition of human CK2alpha2 assessed as enzyme activity at 1 uM relative to control; set-up: scale not given: the % may be the effect or the level left
[9] = biological target: Death-associated protein kinase 3 (Homo sapiens) (UniProt O43293); experiment: Inhibition of human DAPK3 assessed as enzyme activity at 1 uM relative to control; set-up: scale not given: the % may be the effect or the level left
[10] = biological target: Epidermal growth factor receptor (Homo sapiens) (UniProt P00533); experiment: Inhibition of human EGFR assessed as enzyme activity at 1 uM relative to control; set-up: scale not given: the % may be the effect or the level left
[11] = biological target: Mitogen-activated protein kinase 11 (Homo sapiens) (UniProt Q15759); experiment: Inhibition of human p38beta assessed as enzyme activity at 1 uM relative to control; set-up: scale not given: the % may be the effect or the level left
[12] = biological target: Mitogen-activated protein kinase 12 (Homo sapiens) (UniProt P53778); experiment: Inhibition of human p38gamma assessed as enzyme activity at 1 uM relative to control; set-up: scale not given: the % may be the effect or the level left
[13] = biological target: Ribosomal protein S6 kinase beta-1 (Homo sapiens) (UniProt P23443); experiment: Inhibition of human p70S6K assessed as enzyme activity at 1 uM relative to control; set-up: scale not given: the % may be the effect or the level left
[14] = biological target: Serine/threonine-protein kinase MRCK beta (Homo sapiens) (UniProt Q9Y5S2); experiment: Inhibition of human MRCKbeta assessed as enzyme activity at 1 uM relative to control; set-up: scale not given: the % may be the effect or the level left
[15] = biological target: SRSF protein kinase 3 (Homo sapiens) (UniProt Q9UPE1); experiment: Inhibition of human MSSK1 assessed as enzyme activity at 1 uM relative to control; set-up: scale not given: the % may be the effect or the level left
[16] = biological target: Serine/threonine-protein kinase 4 (Homo sapiens) (UniProt Q13043); experiment: Inhibition of human MST1 assessed as enzyme activity at 1 uM relative to control; set-up: scale not given: the % may be the effect or the level left
[17] = biological target: Platelet-derived growth factor receptor alpha (Homo sapiens) (UniProt P16234); experiment: Inhibition of human PDGFRalpha assessed as enzyme activity at 1 uM relative to control; set-up: scale not given: the % may be the effect or the level left
[18] = biological target: Protein kinase C alpha type (Homo sapiens) (UniProt P17252); experiment: Inhibition of human PKCalpha assessed as enzyme activity at 1 uM relative to control; set-up: scale not given: the % may be the effect or the level left
[19] = biological target: Protein kinase C epsilon type (Homo sapiens) (UniProt Q02156); experiment: Inhibition of human PKCepsilon assessed as enzyme activity at 1 uM relative to control; set-up: scale not given: the % may be the effect or the level left
[20] = biological target: Protein-tyrosine kinase 6 (Homo sapiens) (UniProt Q13882); experiment: Inhibition of human PTK6 assessed as enzyme activity at 1 uM relative to control; set-up: scale not given: the % may be the effect or the level left
[21] = biological target: Serine/threonine-protein kinase pim-1 (Homo sapiens) (UniProt P11309); experiment: Inhibition of human Pim-1 assessed as enzyme activity at 1 uM relative to control; set-up: scale not given: the % may be the effect or the level left
[22] = biological target: Proto-oncogene tyrosine-protein kinase ROS (Homo sapiens) (UniProt P08922); experiment: Inhibition of human Ros assessed as enzyme activity at 1 uM relative to control; set-up: scale not given: the % may be the effect or the level left
[23] = biological target: Serine/threonine-protein kinase Sgk1 (Homo sapiens) (UniProt O00141); experiment: Inhibition of human SGK1 assessed as enzyme activity at 1 uM relative to control; set-up: scale not given: the % may be the effect or the level left
[24] = biological target: Serine/threonine-protein kinase Sgk3 (Homo sapiens) (UniProt Q96BR1); experiment: Inhibition of human SGK3 assessed as enzyme activity at 1 uM relative to control; set-up: scale not given: the % may be the effect or the level left
[25] = biological target: Ephrin type-B receptor 2 (Homo sapiens) (UniProt P29323); experiment: Inhibition of human EphB2 assessed as enzyme activity at 1 uM relative to control; set-up: scale not given: the % may be the effect or the level left
[26] = biological target: Receptor tyrosine-protein kinase erbB-4 (Homo sapiens) (UniProt Q15303); experiment: Inhibition of human ErbB4 assessed as enzyme activity at 1 uM relative to control; set-up: scale not given: the % may be the effect or the level left
[27] = biological target: Receptor-type tyrosine-protein kinase FLT3 (Homo sapiens) (UniProt P36888); experiment: Inhibition of human Flt3 assessed as enzyme activity at 1 uM relative to control; set-up: scale not given: the % may be the effect or the level left
[28] = biological target: Macrophage colony-stimulating factor 1 receptor (Homo sapiens) (UniProt P07333); experiment: Inhibition of human Fms assessed as enzyme activity at 1 uM relative to control; set-up: scale not given: the % may be the effect or the level left
[29] = biological target: Inhibitor of nuclear factor kappa-B kinase subunit alpha (Homo sapiens) (UniProt O15111); experiment: Inhibition of human IKKalpha assessed as enzyme activity at 1 uM relative to control; set-up: scale not given: the % may be the effect or the level left
[30] = biological target: Mitogen-activated protein kinase 8 (Homo sapiens) (UniProt P45983); experiment: Inhibition of human JNK1alpha1 assessed as enzyme activity at 1 uM relative to control; set-up: scale not given: the % may be the effect or the level left
[31] = biological target: Mast/stem cell growth factor receptor Kit (Homo sapiens) (UniProt P10721); experiment: Inhibition of human KIT assessed as enzyme activity at 1 uM relative to control; set-up: scale not given: the % may be the effect or the level left
[32] = biological target: LIM domain kinase 1 (Homo sapiens) (UniProt P53667); experiment: Inhibition of human LIMK1 assessed as enzyme activity at 1 uM relative to control; set-up: scale not given: the % may be the effect or the level left
[33] = biological target: Serine/threonine-protein kinase 10 (Homo sapiens) (UniProt O94804); experiment: Inhibition of human LOK assessed as enzyme activity at 1 uM relative to control; set-up: scale not given: the % may be the effect or the level left
[34] = biological target: Tyrosine-protein kinase Lck (Homo sapiens) (UniProt P06239); experiment: Inhibition of human Lck assessed as enzyme activity at 1 uM relative to control; set-up: scale not given: the % may be the effect or the level left
[35] = biological target: MAP kinase-activated protein kinase 5 (Homo sapiens) (UniProt Q8IW41); experiment: Inhibition of human MAPKAP-K5 assessed as enzyme activity at 1 uM relative to control; set-up: scale not given: the % may be the effect or the level left
[36] = biological target: Serine/threonine-protein kinase MARK1 (Homo sapiens) (UniProt Q9P0L2); experiment: Inhibition of human MARK1 assessed as enzyme activity at 1 uM relative to control; set-up: scale not given: the % may be the effect or the level left
[37] = biological target: Misshapen-like kinase 1 (Homo sapiens) (UniProt Q8N4C8); experiment: Inhibition of human MINK assessed as enzyme activity at 1 uM relative to control; set-up: scale not given: the % may be the effect or the level left
[38] = biological target: Dual specificity mitogen-activated protein kinase kinase 4 (Mus musculus) (UniProt P47809); experiment: Inhibition of mouse MKK4 assessed as enzyme activity at 1 uM relative to control; set-up: scale not given: the % may be the effect or the level left

Chain of Mitogen-activated protein kinase 8 (Homo sapiens) (P45983 whole entry): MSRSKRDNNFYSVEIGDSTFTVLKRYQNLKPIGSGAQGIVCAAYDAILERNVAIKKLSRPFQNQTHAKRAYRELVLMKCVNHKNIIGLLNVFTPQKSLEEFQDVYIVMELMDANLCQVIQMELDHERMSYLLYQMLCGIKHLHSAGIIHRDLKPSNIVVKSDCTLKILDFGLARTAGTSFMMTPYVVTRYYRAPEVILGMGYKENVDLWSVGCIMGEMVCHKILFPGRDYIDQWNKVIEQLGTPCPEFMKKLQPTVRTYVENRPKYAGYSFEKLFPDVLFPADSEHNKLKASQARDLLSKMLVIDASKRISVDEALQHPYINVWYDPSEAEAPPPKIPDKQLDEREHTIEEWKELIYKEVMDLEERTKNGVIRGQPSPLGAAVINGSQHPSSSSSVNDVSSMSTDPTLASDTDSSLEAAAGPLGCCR
Chain of Ephrin type-B receptor 2 (Homo sapiens) (P29323 whole entry): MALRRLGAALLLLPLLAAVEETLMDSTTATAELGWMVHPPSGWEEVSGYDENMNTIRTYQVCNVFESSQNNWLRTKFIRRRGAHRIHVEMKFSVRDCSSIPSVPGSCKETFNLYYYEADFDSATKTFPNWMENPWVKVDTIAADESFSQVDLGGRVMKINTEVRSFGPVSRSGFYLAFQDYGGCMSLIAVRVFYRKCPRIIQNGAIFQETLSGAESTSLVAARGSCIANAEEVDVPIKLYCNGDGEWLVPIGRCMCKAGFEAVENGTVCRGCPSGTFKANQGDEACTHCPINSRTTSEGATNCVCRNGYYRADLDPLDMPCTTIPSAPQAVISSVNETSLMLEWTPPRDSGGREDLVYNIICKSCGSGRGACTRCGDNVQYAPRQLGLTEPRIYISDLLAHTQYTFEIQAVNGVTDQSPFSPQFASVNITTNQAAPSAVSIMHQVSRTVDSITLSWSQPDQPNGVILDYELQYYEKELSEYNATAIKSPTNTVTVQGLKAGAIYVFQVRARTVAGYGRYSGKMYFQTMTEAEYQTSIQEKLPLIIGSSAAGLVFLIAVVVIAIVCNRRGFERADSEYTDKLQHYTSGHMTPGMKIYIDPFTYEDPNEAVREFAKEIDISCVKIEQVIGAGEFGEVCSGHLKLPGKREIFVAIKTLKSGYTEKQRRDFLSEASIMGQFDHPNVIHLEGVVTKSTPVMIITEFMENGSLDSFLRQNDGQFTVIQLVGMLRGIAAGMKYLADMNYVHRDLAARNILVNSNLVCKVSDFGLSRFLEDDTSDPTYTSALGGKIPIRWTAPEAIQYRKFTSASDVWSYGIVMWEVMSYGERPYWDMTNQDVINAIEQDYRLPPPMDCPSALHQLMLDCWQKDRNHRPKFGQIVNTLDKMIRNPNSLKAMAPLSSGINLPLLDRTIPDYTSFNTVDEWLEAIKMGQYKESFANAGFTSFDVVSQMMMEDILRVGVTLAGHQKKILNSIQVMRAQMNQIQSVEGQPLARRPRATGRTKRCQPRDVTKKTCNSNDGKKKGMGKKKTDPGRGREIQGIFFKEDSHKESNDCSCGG
Chain of Serine/threonine-protein kinase B-raf (P15056 2-766 V600E limits assumed): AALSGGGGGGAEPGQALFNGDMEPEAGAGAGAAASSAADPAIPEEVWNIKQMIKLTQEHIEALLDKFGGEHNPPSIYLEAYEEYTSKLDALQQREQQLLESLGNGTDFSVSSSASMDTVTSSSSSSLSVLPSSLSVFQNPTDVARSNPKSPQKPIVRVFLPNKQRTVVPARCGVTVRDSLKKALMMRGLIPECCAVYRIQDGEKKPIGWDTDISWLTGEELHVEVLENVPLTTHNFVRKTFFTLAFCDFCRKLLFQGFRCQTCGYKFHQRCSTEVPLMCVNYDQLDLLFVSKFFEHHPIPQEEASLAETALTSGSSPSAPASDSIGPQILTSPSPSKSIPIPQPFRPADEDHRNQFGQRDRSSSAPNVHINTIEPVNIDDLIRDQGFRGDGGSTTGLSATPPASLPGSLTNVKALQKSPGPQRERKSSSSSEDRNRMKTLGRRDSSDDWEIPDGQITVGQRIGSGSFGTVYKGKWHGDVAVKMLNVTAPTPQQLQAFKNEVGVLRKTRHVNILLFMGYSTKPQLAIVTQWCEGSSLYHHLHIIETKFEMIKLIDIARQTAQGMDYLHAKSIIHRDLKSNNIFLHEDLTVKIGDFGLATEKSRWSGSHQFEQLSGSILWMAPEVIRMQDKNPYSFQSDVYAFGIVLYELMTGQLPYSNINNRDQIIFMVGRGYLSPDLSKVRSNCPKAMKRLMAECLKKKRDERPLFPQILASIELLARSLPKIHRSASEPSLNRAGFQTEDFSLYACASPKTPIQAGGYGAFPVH
Chain of Protein kinase C epsilon type (Homo sapiens) (Q02156 whole entry): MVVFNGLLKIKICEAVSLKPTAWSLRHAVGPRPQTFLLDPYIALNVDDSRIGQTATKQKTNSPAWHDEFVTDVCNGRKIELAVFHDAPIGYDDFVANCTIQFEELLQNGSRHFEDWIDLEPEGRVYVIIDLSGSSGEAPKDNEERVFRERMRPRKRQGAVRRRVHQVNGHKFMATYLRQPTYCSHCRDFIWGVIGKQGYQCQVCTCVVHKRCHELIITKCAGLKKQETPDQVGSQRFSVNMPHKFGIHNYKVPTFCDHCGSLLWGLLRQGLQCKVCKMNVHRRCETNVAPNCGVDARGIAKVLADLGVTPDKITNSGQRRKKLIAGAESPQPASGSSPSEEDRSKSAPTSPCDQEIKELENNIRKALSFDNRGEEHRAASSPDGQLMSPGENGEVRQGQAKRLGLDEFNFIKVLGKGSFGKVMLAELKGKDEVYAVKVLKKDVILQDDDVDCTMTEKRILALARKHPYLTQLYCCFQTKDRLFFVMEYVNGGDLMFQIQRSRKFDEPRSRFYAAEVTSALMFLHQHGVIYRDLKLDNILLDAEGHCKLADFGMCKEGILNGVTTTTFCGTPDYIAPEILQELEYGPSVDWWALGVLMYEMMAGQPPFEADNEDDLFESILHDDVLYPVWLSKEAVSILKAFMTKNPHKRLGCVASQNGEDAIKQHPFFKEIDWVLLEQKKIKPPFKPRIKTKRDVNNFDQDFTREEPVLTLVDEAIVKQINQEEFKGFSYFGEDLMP
Chain of Mast/stem cell growth factor receptor Kit (Homo sapiens) (P10721 whole entry, the tested form may be a part): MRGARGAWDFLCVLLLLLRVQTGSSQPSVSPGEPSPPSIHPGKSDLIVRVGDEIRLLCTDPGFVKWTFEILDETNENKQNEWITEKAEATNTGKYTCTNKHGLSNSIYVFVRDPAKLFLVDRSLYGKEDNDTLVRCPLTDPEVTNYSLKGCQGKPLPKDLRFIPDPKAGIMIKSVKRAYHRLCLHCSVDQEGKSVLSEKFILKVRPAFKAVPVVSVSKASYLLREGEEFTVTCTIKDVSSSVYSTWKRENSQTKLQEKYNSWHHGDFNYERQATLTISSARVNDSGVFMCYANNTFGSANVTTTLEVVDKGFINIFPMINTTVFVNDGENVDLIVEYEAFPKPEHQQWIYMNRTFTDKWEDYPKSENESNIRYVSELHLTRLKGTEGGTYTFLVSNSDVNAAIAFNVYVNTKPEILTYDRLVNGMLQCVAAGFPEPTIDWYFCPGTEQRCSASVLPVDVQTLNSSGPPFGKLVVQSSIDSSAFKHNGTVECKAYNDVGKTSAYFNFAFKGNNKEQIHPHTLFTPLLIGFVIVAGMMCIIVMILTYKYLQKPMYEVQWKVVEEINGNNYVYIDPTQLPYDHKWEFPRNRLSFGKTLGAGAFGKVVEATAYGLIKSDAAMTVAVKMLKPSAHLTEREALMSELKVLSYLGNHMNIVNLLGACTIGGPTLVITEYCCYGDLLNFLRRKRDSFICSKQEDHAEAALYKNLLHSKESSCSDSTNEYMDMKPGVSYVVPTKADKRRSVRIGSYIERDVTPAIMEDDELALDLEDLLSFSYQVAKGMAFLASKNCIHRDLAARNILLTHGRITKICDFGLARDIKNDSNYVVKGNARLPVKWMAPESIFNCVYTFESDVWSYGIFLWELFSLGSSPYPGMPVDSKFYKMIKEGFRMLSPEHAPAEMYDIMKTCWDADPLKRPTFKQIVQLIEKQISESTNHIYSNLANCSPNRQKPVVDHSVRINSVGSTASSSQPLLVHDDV
Chain of Serine/threonine-protein kinase Sgk3 (Homo sapiens) (Q96BR1 whole entry): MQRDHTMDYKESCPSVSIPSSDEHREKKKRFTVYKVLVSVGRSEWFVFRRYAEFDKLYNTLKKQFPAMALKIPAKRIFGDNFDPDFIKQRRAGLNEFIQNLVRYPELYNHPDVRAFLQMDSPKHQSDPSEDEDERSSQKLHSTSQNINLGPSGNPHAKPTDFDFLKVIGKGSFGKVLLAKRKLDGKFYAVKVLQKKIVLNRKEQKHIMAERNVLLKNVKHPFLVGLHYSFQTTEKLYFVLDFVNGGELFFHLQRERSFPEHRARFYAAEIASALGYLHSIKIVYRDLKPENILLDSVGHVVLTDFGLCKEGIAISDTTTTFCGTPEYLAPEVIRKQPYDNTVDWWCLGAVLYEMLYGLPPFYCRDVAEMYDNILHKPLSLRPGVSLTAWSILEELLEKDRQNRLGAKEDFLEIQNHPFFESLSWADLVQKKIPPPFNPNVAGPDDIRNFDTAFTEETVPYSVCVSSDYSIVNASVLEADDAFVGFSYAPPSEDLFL
Chain of Casein kinase II subunit alpha' (Homo sapiens) (P19784 whole entry, looked up): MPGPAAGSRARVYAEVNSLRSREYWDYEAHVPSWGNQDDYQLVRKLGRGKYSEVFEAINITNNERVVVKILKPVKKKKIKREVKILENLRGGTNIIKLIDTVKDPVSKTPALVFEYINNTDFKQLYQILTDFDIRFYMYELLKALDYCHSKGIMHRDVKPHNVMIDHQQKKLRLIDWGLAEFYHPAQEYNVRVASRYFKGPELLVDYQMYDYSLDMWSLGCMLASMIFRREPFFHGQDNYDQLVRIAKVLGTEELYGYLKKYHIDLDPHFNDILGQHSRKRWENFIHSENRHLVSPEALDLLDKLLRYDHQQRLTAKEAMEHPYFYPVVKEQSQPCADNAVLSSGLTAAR

- IC50 [1]: 6 nM
- Activity [2]: 109%
- Activity [3]: 106%
- Activity [4]: 106%
- Activity [5]: 104%
- Activity [6]: 104%
- Activity [7]: 95.5%
- Activity [8]: 99%
- Activity [10]: 102%
- Activity [11]: 110%
- Activity [12]: 106%
- Activity [13]: 112%
- Activity [14]: 104%
- Activity [15]: 115%
- Activity [16]: 108%
- Activity [17]: 102%
- Activity [18]: 97%
- Activity [19]: 99.5%
- Activity [20]: 57.5%
- Activity [21]: 147%
- Activity [22]: 108%
- Activity [23]: 121%
- Activity [24]: 108%
- Activity [25]: 94.5%
- Activity [26]: 106%
- Activity [27]: 102%
- Activity [28]: 99%
- Activity [29]: 129%
- Activity [30]: 102%
- Activity [31]: 94.5%
- Activity [32]: 85%
- Activity [33]: 40.5%
- Activity [34]: 87%
- Activity [35]: 104%
- Activity [36]: 117%
- Activity [37]: 106%
- Activity [38]: 128%
Structure (SMILES): CCCS(=O)(=O)Nc1cccc(Nc2ccc3ncn(C)c(=O)c3c2)c1C#N
- Activity [9]: 110%
